Reference: US9199946B2, “Pyrimidinone carboxamide inhibitors of endothelial lipase” (BRISTOL-MYERS SQUIBB COMPANY, priority 2012, dated 2015)
Read-outs that look alike come from different tables or passages of the source.

Target: T1, Endothelial lipase (EL) (Homo sapiens, UniProt Q9Y5X9)
T1 construct: HT-1080 cells, which were transformed by RAGE technology (Athersys) to overexpress endogenous EL; endogenous in cells; conditioned medium used as the enzyme source
T1 sequence (Q9Y5X9 21-500): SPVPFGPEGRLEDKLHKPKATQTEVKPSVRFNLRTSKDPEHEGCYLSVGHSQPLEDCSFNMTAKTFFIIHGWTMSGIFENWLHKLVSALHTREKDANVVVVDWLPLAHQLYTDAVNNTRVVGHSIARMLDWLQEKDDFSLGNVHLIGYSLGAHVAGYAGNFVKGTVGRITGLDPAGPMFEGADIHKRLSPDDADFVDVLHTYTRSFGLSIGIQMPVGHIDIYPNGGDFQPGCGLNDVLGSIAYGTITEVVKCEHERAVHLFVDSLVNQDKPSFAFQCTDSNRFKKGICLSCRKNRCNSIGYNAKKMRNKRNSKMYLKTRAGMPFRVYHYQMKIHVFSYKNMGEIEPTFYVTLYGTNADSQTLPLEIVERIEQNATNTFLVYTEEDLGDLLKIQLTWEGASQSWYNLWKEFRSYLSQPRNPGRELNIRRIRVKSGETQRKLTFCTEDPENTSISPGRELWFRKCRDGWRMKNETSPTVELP
Experiment: Endothelial lipase (EL) enzymatic assay with fluorescent substrate A10070 in DMPG vesicles
Assay type: biochemical
Procedure: Endothelial lipase activity was measured using a fluorescent substrate, A10070, (Invitrogen, CA) doped into an artificial vesicle containing DMPG (Avanti Polar Lipids) as the excipient. Vesicles were prepared by combining 285 μL of 1 mM DMPG in a 1:1 mixture of MeOH and CHCl3 with 15 μL of 1 mM A10070 in a 1:1 mixture of MeOH and CHCl3. The mixture was dried under nitrogen and resuspended in 150 μL of 50 mM HEPES pH 8.0 buffer containing 100 mM NaCl and 0.2 mM EDTA. The sample was allowed to sit at rt for 15 min and then was sonicated 3×4 mins on ice with a Branson Sonicator using duty cycle 1. This preparation provides vesicles with a mole fraction of 0.05 for the FRET substrate.
The enzymatic assay was measured using white, opaque 96-well half area plates. Each well contained 60 μL of assay buffer (50 mM HEPES pH 8.0, 50 mM NaCl and 1 mM CaCl2) and 2 ul of a DMSO solution containing compound of interest. Conditioned media obtained from HT-1080 cells, which were transformed by RAGE technology (Athersys) to overexpress endogenous EL, was added and the reaction was allowed to incubate for 20 min at 37° C. with gentle agitation. The reaction was started by the addition of 20 μL of a 1:4 dilution of vesicles. The final total reaction volume was 100 μL. The reaction rates were measured on a Gemini plate reader with an excitation wavelength of 488 nm and an emission of 530 nm. Readings were taken every 20 seconds for 10 min with agitation between each reading. The slope of the linear portion of the readout was used to calculate the rate of the reaction.

[1] = range observed in the EL assay, read-out: EL IC50 values
[2] = conditioned media from HT-1080 cells overexpressing endogenous EL, 20 min preincubation at 37° C., read-out: EL IC50

IC50 [1]	IC50 [2]	Compound
≤ 10 µM	0.296 µM	O=C(N[C@H]1CC[C@@H](c2ccccc2)CC1)c1[nH]c(=O)[nH]c(=O)c1NCCc1ccc(Cl)cc1 [Example 218, 5-(4-chlorophenethylamino)-2,6-dioxo-N-(cis-4-phenylcyclohexyl)-1,2,3,6-tetrahydropyrimidine-4-carboxamide]
≤ 10 µM	–	O=C(N[C@@H]1CC[C@@H](C(=O)NCc2nc3ccccc3s2)C1)c1[nH]c(=O)[nH]c(=O)c1O [Example 296, N-((1R,3R)-3-(benzo[d]thiazol-2-ylmethylcarbamoyl)cyclopentyl)-5-hydroxy-2,6-dioxo-1,2,3,6-tetrahydropyrimidine-4-carboxamide]
≤ 10 µM	–	Nc1c(C(=O)N[C@H]2C[C@@H](c3ccccc3)c3ccccc32)[nH]c(=O)[nH]c1=O [Example 28, 5-amino-2,6-dioxo-N-((1S,3S)-3-phenyl-2,3-dihydro-1H-inden-1-yl)-1,2,3,6-tetrahydropyrimidine-4-carboxamide]
≤ 10 µM	–	COC(=O)[C@H]1CC[C@@H](NC(=O)c2[nH]c(=O)[nH]c(=O)c2N)CC1 [Example 43, cis-methyl 4-(5-amino-2,6-dioxo-1,2,3,6-tetrahydropyrimidine-4-carboxamido) cyclohexanecarboxylate]
≤ 10 µM	–	Nc1c(C(=O)N[C@H]2CC[C@@H](NC(=O)c3cccc(OCc4ccccc4)c3)CC2)[nH]c(=O)[nH]c1=O [Example 122, 5-amino-N-(cis-4-(3-(benzyloxy)benzamido)cyclohexyl)-2,6-dioxo-1,2,3,6-tetrahydropyrimidine-4-carboxamide]
≤ 10 µM	0.019 µM	Nc1c(C(=O)N[C@H]2CC[C@@H](C(=O)N[C@@H]3CCCc4c(OCc5ccccc5)cccc43)C2)[nH]c(=O)[nH]c1=O [Example 136, 5-amino-N-((1S,3R)-3-((R)-5-(benzyloxy)-1,2,3,4-tetrahydronaphthalen-1-ylcarbamoyl)cyclopentyl)-2,6-dioxo-1,2,3,6-tetrahydropyrimidine-4-carboxamide]
≤ 10 µM	–	COc1ccc2c(c1)C(NC(=O)c1[nH]c(=O)[nH]c(=O)c1N)CCC2 (single isomer, unassigned; enantiomer b) [Example 200, 5-amino-N-(7-methoxy-1,2,3,4-tetrahydronaphthalen-1-yl)-2,6-dioxo 1,2,3,6-tetrahydropyrimidine-4-carboxamide (Enantiomer B)]
≤ 10 µM	0.875 µM	O=C(N[C@H]1CC[C@@H](NC(=O)c2[nH]c(=O)[nH]c(=O)c2O)CC1)OCc1ccccc1 [Example 281, benzyl cis-4-(5-hydroxy-2,6-dioxo-1,2,3,6-tetrahydropyrimidine-4-carboxamido)cyclohexylcarbamate]
≤ 10 µM	–	COc1ccc2c(c1)OC(C)CC2NC(=O)c1[nH]c(=O)[nH]c(=O)c1N (centres unmarked) [Example 17, 5-amino-N-(7-methoxy-2-methylchroman-4-yl)-2,6-dioxo-1,2,3,6-tetrahydropyrimidine-4-carboxamide]
≤ 10 µM	–	Nc1c(C(=O)N[C@@H]2CCC[C@@H]2c2ccc(Cl)cc2)[nH]c(=O)[nH]c1=O [Example 64, 5-amino-N-((1R,2R)-2-(4-chlorophenyl)cyclopentyl)-2,6-dioxo-1,2,3,6-tetrahydropyrimidine-carboxamide]
≤ 10 µM	5.28 µM	O=C(N[C@H]1CC[C@@H](c2ccccc2)CC1)c1[nH]c(=O)[nH]c(=O)c1NCc1ccccn1 [Example 225, 2,6-dioxo-N-(cis-4-phenylcyclohexyl)-5-(pyridin-2-ylmethylamino)-1,2,3,6-tetrahydropyrimidine-4-carboxamide]
≤ 10 µM	–	Nc1c(C(=O)N[C@@H]2CC[C@@H](c3ccc(Cl)c(Cl)c3)C2)[nH]c(=O)[nH]c1=O [Example 68, 5-amino-N-((1R,3R)-3-(3,4-dichlorophenyl)cyclopentyl)-2,6-dioxo-1,2,3,6-tetrahydropyrimidine-4-carboxamide]
≤ 10 µM	–	Nc1c(C(=O)N[C@@H]2C[C@@H](c3ccccc3)c3ccccc32)[nH]c(=O)[nH]c1=O [Example 42, 5-amino-2,6-dioxo-N-((1R,3S)-3-phenyl-2,3-dihydro-1H-inden-1-yl)-1,2,3,6-tetrahydropyrimidine-4-carboxamide]

The next lines start with the molecule.

Compound	IC50 [1]	IC50 [2]
O=C(N[C@H]1CC[C@@H](c2ccccc2)CC1)c1[nH]c(=O)[nH]c(=O)c1NCc1ccc(C(F)(F)F)cc1 [Example 220, 2,6-dioxo-N-(cis-4-phenylcyclohexyl)-5-(4-(trifluoromethyl)benzylamino)-1,2,3,6-tetrahydropyrimidine-4-carboxamide]	≤ 10 µM	–
Nc1c(C(=O)NC2CCCN(c3nccc(C(F)(F)F)n3)C2)[nH]c(=O)[nH]c1=O (centres unmarked) [Example 184, 5-amino-2,6-dioxo-N-(1-(4-(trifluoromethyl)pyrimidin-2-yl)piperidin-3-yl)-1,2,3,6-tetrahydropyrimidine-4-carboxamide]	≤ 10 µM	5.71 µM
CCNc1c(C(=O)N[C@H]2CC[C@@H](c3ccccc3)CC2)[nH]c(=O)[nH]c1=O [Example 229, 5-(ethylamino)-2,6-dioxo-N-(cis-4-phenylcyclohexyl)-1,2,3,6-tetrahydropyrimidine-4-carboxamide]	≤ 10 µM	–
O=C(N[C@H]1CC[C@@H](c2ccccc2)CC1)c1[nH]c(=O)[nH]c(=O)c1NCCCN1CCOCC1 [Example 219, 5-(3-morpholinopropylamino)-2,6-dioxo-N-(cis-4-phenylcyclohexyl)-1,2,3,6-tetrahydropyrimidine-4-carboxamide]	≤ 10 µM	–
O=C(N[C@H]1CC[C@@H](c2ccccc2)CC1)c1[nH]c(=O)[nH]c(=O)c1NCc1cccnc1 [Example 209, 2,6-dioxo-N-(cis-4-phenylcyclohexyl)-5-(pyridin-3-ylmethylamino)-1,2,3,6-tetrahydropyrimidine-4-carboxamide]	≤ 10 µM	0.512 µM
O=C(N[C@@H]1CCc2cc(O)ccc21)c1[nH]c(=O)[nH]c(=O)c1O [Example 262, (R)-5-hydroxy-N-(5-hydroxy-2,3-dihydro-1H-inden-1-yl)-2,6-dioxo-1,2,3,6-tetrahydropyrimidine-4-carboxamide]	≤ 10 µM	–
Nc1c(C(=O)N[C@@H]2CCc3cc(C(F)(F)F)ccc32)[nH]c(=O)[nH]c1=O [Example 27, (R)-5-amino-2,6-dioxo-N-(5-(trifluoromethyl)-2,3-dihydro-1H-inden-1-yl)-1,2,3,6-tetrahydropyrimidine-4-carboxamide]	≤ 10 µM	–
COc1cccc2c1C[C@H](NC(=O)c1[nH]c(=O)[nH]c(=O)c1N)CC2 [Example 110, (R)-5-amino-N-(8-methoxy-1,2,3,4-tetrahydronaphthalen-2-yl)-2,6-dioxo-1,2,3,6-tetrahydropyrimidine-4-carboxamide]	≤ 10 µM	–
COCCOc1ccc(C(=O)N[C@H]2CC[C@@H](NC(=O)c3[nH]c(=O)[nH]c(=O)c3N)CC2)cc1 [Example 120, 5-amino-N-(cis-4-(4-(2-methoxyethoxy)benzamido)cyclohexyl)-2,6-dioxo-1,2,3,6-tetrahydropyrimidine-4-carboxamide]	≤ 10 µM	–
O=C(N[C@H]1CCCc2ccccc21)c1[nH]c(=O)[nH]c(=O)c1O [Example 245, (S)-5-hydroxy-2,6-dioxo-N-(1,2,3,4-tetrahydronaphthalen-1-yl)-1,2,3,6-tetrahydropyrimidine-4-carboxamide]	≤ 10 µM	–
O=C(N[C@@H]1CCc2cc(C(F)(F)F)ccc21)c1[nH]c(=O)[nH]c(=O)c1O [Example 249, (R)-5-hydroxy-2,6-dioxo-N-(5-(trifluoromethyl)-2,3-dihydro-1H-inden-1-yl)-1,2,3,6-tetrahydropyrimidine-4-carboxamide]	≤ 10 µM	–
Nc1c(C(=O)N[C@@H]2CC[C@H](c3ccccc3)c3ccccc32)[nH]c(=O)[nH]c1=O [Example 19, 5-amino-2,6-dioxo-N-((1R,4R)-4-phenyl-1,2,3,4-tetrahydronaphthalen-1-yl)-1,2,3,6-tetrahydropyrimidine-4-carboxamide]	≤ 10 µM	–
Nc1c(C(=O)N[C@@H]2CCCc3cc(Oc4ccccc4)ccc32)[nH]c(=O)[nH]c1=O [Example 85, (R)-5-amino-2,6-dioxo-N-(6-phenoxy-1,2,3,4-tetrahydronaphthalen-1-yl)-1,2,3,6-tetrahydropyrimidine-4-carboxamide]	≤ 10 µM	–
